Reference: patent US10538512B2, “Aminoacylindazole immunomodulators for treatment of autoimmune diseases” (The Rockefeller University, priority 2016, dated 2020)

biological target: T1, Human FXIIa (Homo sapiens, UniProt P00748); test: Factor XIIa (FXIIa) inhibitory activity, chromogenic substrate assay; format: biochemical; settings: Human FXIIa 12.5 nM, Pefachrome XIIa 400 μM, 10 min preincubation
T1 construct: active coagulation factor XII (FXIIa); purchased Enzyme Research Labs
T1 sequence (P00748 373-615 limits assumed): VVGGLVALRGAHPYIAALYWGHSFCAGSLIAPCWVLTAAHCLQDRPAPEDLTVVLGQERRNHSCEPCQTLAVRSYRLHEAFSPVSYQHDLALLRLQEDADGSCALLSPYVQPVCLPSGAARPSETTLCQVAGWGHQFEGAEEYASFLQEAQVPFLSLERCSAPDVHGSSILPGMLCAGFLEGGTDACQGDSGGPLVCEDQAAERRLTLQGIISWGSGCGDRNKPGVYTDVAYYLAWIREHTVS
T1 sequence (P00748 20-372 partner limits assumed): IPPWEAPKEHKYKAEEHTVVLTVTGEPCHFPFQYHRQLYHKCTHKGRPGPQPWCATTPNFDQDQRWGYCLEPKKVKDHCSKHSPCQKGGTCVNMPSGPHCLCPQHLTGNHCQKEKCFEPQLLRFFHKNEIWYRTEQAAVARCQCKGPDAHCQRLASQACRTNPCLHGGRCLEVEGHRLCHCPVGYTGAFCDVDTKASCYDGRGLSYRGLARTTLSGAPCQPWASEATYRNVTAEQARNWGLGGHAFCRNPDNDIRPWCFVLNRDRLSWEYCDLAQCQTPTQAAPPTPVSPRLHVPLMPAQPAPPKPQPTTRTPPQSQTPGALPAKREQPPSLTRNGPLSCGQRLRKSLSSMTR
Procedure: Factor XIIa (FXIIa) Inhibitory Activity:
In a 96-well clear bottom plate, 80 μl of assay buffer was added to each well. Assay buffer consists of 0.5× Hank's Balanced Salt Solution (Invitrogen), buffered with 25 mM HEPES pH 7.4 (Invitrogen) and 0.5× Tris-buffered saline with Tween-20 0.05% (Santa Cruz Biotechnology). Test compounds were first dissolved in DMSO (Sigma) and then 4 μl were added to test wells containing assay buffer. Serial dilutions using an automated multi-channel pipette were used to generate a concentration range of approximately 1-100 μM. […] 80 μl of this enzyme solution was added to the assay wells. The enzyme/compound mixtures were incubated for 10 minutes at room temperature. Chromogenic substrate (Pefachrome XIIa; Enzyme Research Labs) was added to assay wells at a final concentration of 400 μM. The assay plate was spun for 1 minute at 1500 g and then read at 37° C. in a SpectraMax M2 plate reader (λ=405 nm). Activity was quantified as the rate of change in absorbance, which corresponds to the rate of substrate cleavage.

Row | IC50 [µM] | SMILES
1 | > 100 | COc1ccc2c(c1)NCCC2C(=O)n1nc(N)c2c1CCCC2 (centres unmarked) [Example 111, (3-amino-4,5,6,7-tetrahydroindazol-1-yl)(7-methoxy-1,2,3,4-tetrahydroquinolin-4-yl)methanone]
2 | 0.04 | Cc1cccc2c1NCCC2C(=O)n1nc2c(c1N)C=CCC2 (single isomer, unassigned) [Example 195, (S*)-(3-amino-6,7-dihydroindazol-2-yl)(8-methyl-1,2,3,4-tetrahydroquinolin-4-yl)methanone]
3 | > 80 | Nc1nn(C(=O)[C@@H]2CCNc3ccc(Cl)cc32)c2c1C[C@@H](O)CC2 (single isomer, unassigned) [Example 145, ((5S*)-3-amino-5-hydroxy-4,5,6,7-tetrahydroindazol-1-yl)((4R*)-6-chloro-1,2,3,4-tetrahydroquinolin-4-yl)methanone]
4 | 35 | Cc1cccc2c1NCC[C@H]2C(=O)n1nc2c(c1N)C[C@H](O)CC2 (single isomer, unassigned) [Example 217, ((5R*)-3-amino-5-hydroxy-4,5,6,7-tetrahydro-2H-indazol-2-yl)((4R*)-8-methyl-1,2,3,4-tetrahydroquinolin-4-yl)methanone]
5 | 9 | Nc1c2c(nn1C(=O)[C@@H]1CCNc3ccc(Cl)cc31)CC[C@H](O)C2 (single isomer, unassigned) [Example 144, ((5S*)-3-amino-5-hydroxy-4,5,6,7-tetrahydroindazol-2-yl)((4R*)-6-chloro-1,2,3,4-tetrahydroquinolin-4-yl)methanone]
6 | 8 | Nc1c2c(nn1C(=O)C1CCCc3[nH]c(Cl)cc31)CCCC2 (single isomer, unassigned) [Example 107, (R*)-(3-amino-4,5,6,7-tetrahydro-2H-indazol-2-yl)(2-chloro-4,5,6,7-tetrahydro-1H-indol-4-yl)methanone]
7 | 0.9 | Cc1ccc2c(c1)NCCC2C(=O)n1nc2c(c1N)CCCC2 (centres unmarked) [Example 101, (3-amino-4,5,6,7-tetrahydroindazol-2-yl)(7-methyl-1,2,3,4-tetrahydroquinolin-4-yl)methanone]
8 | > 100 | Nc1c2c(nn1C(=O)[C@@H]1CCNc3ccc(F)cc31)C[C@@H](O)CC2 (single isomer, unassigned) [Example 182, ((6S*)-3-amino-6-hydroxy-4,5,6,7-tetrahydroindazol-2-yl)((4R*)-6-fluoro-1,2,3,4-tetrahydroquinolin-4-yl)methanone]
9 | 0.04 | Cc1cccc2c1NCC[C@@H]2C(=O)n1nc2c(c1N)CC[C@@H](O)C2 (single isomer, unassigned) [Example 199, ((6R*)-3-amino-6-hydroxy-4,5,6,7-tetrahydroindazol-2-yl)((4S*)-8-methyl-1,2,3,4-tetrahydroquinolin-4-yl)methanone]
10 | > 90 | Nc1nn(C(=O)[C@@H]2CCNc3ccc(F)cc32)c2c1C[C@@H](O)CC2 (single isomer, unassigned) [Example 136, ((5S*)-3-amino-5-hydroxy-4,5,6,7-tetrahydroindazol-1-yl)((4R*)-6-fluoro-1,2,3,4-tetrahydroquinolin-4-yl)methanone]
11 | > 80 | Nc1c2c(nn1C(=O)[C@@H]1CCNc3ccc(F)cc31)CC[C@@H](N)C2 (stereo in doubt) [Example 188, ((5R*)-3,5-diamino-4,5,6,7-tetrahydroindazol-2-yl)((4R*)-6-fluoro-1,2,3,4-tetrahydroquinolin-4-yl)methanone]
12 | 0.07 | Nc1c2c(nn1C(=O)[C@H]1CCNc3c(Cl)cccc31)CC[C@H](N)C2 (relative stereo) [Example 215, ((4S*)-8-chloro-1,2,3,4-tetrahydroquinolin-4-yl)((5S*)-3,5-diamino-4,5,6,7-tetrahydroindazol-2-yl)methanone]
13 | 6 | Cc1cc2c(C(=O)n3ncc4c3CCCC4)cccc2[nH]1 [Example 160]
14 | > 100 | Nc1nn(C(=O)C2CCNc3c(Cl)cccc32)c2c1CC(O)CC2 (single isomer, unassigned) [Example 205, ((5R*)-3-amino-5-hydroxy-4,5,6,7-tetrahydroindazol-1-yl)(8-chloro-1,2,3,4-tetrahydroquinolin-4-yl)methanone]
15 | 0.25 | Nc1c2c(nn1C(=O)C1CCCc3[nH]ccc31)CCCC2 (single isomer, unassigned) [Example 94, (S*)-(3-amino-4,5,6,7-tetrahydroindazol-2-yl)(4,5,6,7-tetrahydro-1H-indol-4-yl)methanone]
16 | > 100 | Nc1nn(C(=O)C2CCNc3c(Cl)cccc32)c2c1CCC(O)C2 (single isomer, unassigned) [Example 208, ((6S*)-3-amino-6-hydroxy-4,5,6,7-tetrahydroindazol-1-yl)(8-chloro-1,2,3,4-tetrahydroquinolin-4-yl)methanone]
17 | 3 | Nc1c2c(nn1C(=O)[C@@H]1CCNc3c(Cl)cccc31)CC[C@H](N)C2 (relative stereo) [Example 216, ((4R*)-8-chloro-1,2,3,4-tetrahydroquinolin-4-yl)((5S*)-3,5-diamino-4,5,6,7-tetrahydroindazol-2-yl)methanone]
18 | > 40 | Nc1nn(C(=O)[C@@H]2CCNc3ccc(Cl)cc32)c2c1C[C@H](O)CC2 (single isomer, unassigned) [Example 149, ((5R*)-3-amino-5-hydroxy-4,5,6,7-tetrahydroindazol-1-yl)((4R*)-6-chloro-1,2,3,4-tetrahydroquinolin-4-yl)methanone]
19 | > 90 | Nc1nn(C(=O)[C@H]2CCNc3ccc(F)cc32)c2c1C[C@H](O)CC2 (relative stereo) [Example 131, ((5R*)-3-amino-5-hydroxy-4,5,6,7-tetrahydro-2H-indazol-1-yl)((4S*)-6-fluoro-1,2,3,4-tetrahydroquinolin-4-yl)methanone]
20 | 16 | Nc1c2c(nn1C(=O)[C@@H]1CCNc3ccc(F)cc31)CC[C@@H](F)C2 (single isomer, unassigned) [Example 138, ((5R*)-3-amino-5-fluoro-4,5,6,7-tetrahydroindazol-2-yl)((4R*)-6-fluoro-1,2,3,4-tetrahydroquinolin-4-yl)methanone]
21 | > 100 | Nc1nn(C(=O)[C@H]2CCNc3c(Cl)cccc32)c2c1CC[C@@H](O)C2 (single isomer, unassigned) [Example 211, ((6R*)-3-amino-6-hydroxy-4,5,6,7-tetrahydroindazol-1-yl)((4S*)-8-chloro-1,2,3,4-tetrahydroquinolin-4-yl)methanone]
22 | 0.04 | Nc1c2c(nn1C(=O)C1CCCc3[nH]c(Cl)cc31)CCCC2 (single isomer, unassigned) [Example 106, (S*)-(3-amino-4,5,6,7-tetrahydro-2H-indazol-2-yl)(2-chloro-4,5,6,7-tetrahydro-1H-indol-4-yl)methanone]
23 | 1.5 | Cc1ccc2c(c1)N(C)CCC2C(=O)n1nc2c(c1N)CCCC2 (centres unmarked) [Example 163]
24 | 0.03 | Cc1cc2c(C(=O)n3nc4c(c3N)CC(OCc3ccccc3)CC4)cccc2[nH]1 (centres unmarked) [Example 117, (3-amino-5-(benzyloxy)-4,5,6,7-tetrahydroindazol-2-yl)(2-methyl-1H-indol-4-yl)methanone]
25 | > 175 | Cc1cccc2c1NCC[C@H]2C(=O)n1nc(N)c2c1C[C@H](O)CC2 (single isomer, unassigned) [Example 202, ((6R*)-3-amino-6-hydroxy-4,5,6,7-tetrahydroindazol-1-yl)((4R*)-8-methyl-1,2,3,4-tetrahydroquinolin-4-yl)methanone]
26 | 3.3 | CCc1cc2c([nH]1)CCCC2C(=O)n1nc2c(c1N)CCCC2 (single isomer, unassigned) [Example 84, (R*)-(3-amino-4,5,6,7-tetrahydroindazol-2-yl)(2-ethyl-4,5,6,7-tetrahydro-1H-indol-4-yl)methanone]
27 | 28 | CO[C@@H]1CCc2nn(C(=O)[C@H]3CCNc4ccc(F)cc43)c(N)c2C1 (single isomer, unassigned) [Example 179, ((5R*)-3-amino-5-methoxy-4,5,6,7-tetrahydroindazol-2-yl)((4S*)-6-fluoro-1,2,3,4-tetrahydroquinolin-4-yl)methanone]
28 | 20 | Cc1cc2c(C(=O)n3nc(N)c4c3CCC(OCc3ccccc3)C4)cccc2[nH]1 (centres unmarked) [Example 118, (3-amino-5-(benzyloxy)-4,5,6,7-tetrahydroindazol-1-yl)(2-methyl-1H-indol-4-yl)methanone]
29 | 11 | Cc1[nH]c2ccccc2c1C(=O)n1nc2c(c1N)CCCC2 [Example 44, (3-amino-4,5,6,7-tetrahydroindazol-2-yl)(2-methyl-1H-indol-3-yl)methanone]
